Source: article PMC12040169 (PLOS Biology, 2025)

Assay: in vitro
Conditions: human, hela cells, % viability

Q: With `COc1ccc(C(=O)N2CCC(C)CC2)cc1[N+](=O)[O-]` [CBK074341] as the compound, how does the viability at 28.5 h, 10 µM read?
A: The viability at 28.5 h, 10 µM was 93.3%.

Q: With `O=C1CC(NCc2ccc3c(c2)OCO3)C(=O)N1c1ccc(OC(F)(F)Cl)cc1` (stereo not shown) [CBK074357] as the compound, how does the viability at 28.5 h, 10 µM read?
A: The viability at 28.5 h, 10 µM was 87.7%.

Q: Which viability at 28.5 h, 10 µM does the source give for `O=C(/C=C\c1ccc(Cl)cc1Cl)N1CCN(Cc2ccc3c(c2)OCO3)CC1` [CBK074371] here?
A: The viability at 28.5 h, 10 µM was 97.3%.

Q: Which viability at 28.5 h, 10 µM does the source give for `Cc1cc(OCC(O)CN2CCN(Cc3ccc4c(c3)OCO4)CC2)cc(C)c1Cl` (stereo not shown) [CBK074374] here?
A: Its viability at 28.5 h, 10 µM is 93.4%.

Q: With `COc1cccc(CN2CCN(C(=O)c3ccco3)CC2)c1OC` [CBK074380] as the compound, how does the viability at 28.5 h, 10 µM read?
A: The viability at 28.5 h, 10 µM was 87.4%.

Q: Which viability at 28.5 h, 10 µM does the source give for `Cc1cc(Cl)ccc1OCC(O)CN1CCN(Cc2ccc3c(c2)OCO3)CC1` (stereo not shown) [CBK074383] here?
A: The viability at 28.5 h, 10 µM was 92.3%.

Q: For `COc1ccc(CCNc2ncnc3sc4c(c23)CCCCC4)cc1OC` [CBK074384], which viability at 28.5 h, 10 µM is on record?
A: Its viability at 28.5 h, 10 µM is 89.9%.

Q: With `O=C(CN1CCN(Cc2ccc3c(c2)OCO3)CC1)Nc1ccc(SC(F)(F)F)cc1` [CBK074385] as the compound, how does the viability at 28.5 h, 10 µM read?
A: The viability at 28.5 h, 10 µM was 108%.

Q: For `COc1cc(CNc2ccc(N3CCOCC3)c(Cl)c2)ccc1OCc1ccccc1F` [CBK074392], which viability at 28.5 h, 10 µM is on record?
A: Its viability at 28.5 h, 10 µM is 93.6%.

Q: Which viability at 28.5 h, 10 µM does the source give for `N#Cc1c(Nc2cccc(C(F)(F)F)c2)sc(C(=O)c2ccc3c(c2)OCO3)c1N` [CBK074399] here?
A: The viability at 28.5 h, 10 µM was 89.2%.

Q: For `O=C1CC(N2CCN(Cc3ccc4c(c3)OCO4)CC2)C(=O)N1c1ccc(Cl)cc1` (stereo not shown) [CBK074402], which viability at 28.5 h, 10 µM is on record?
A: Its viability at 28.5 h, 10 µM is 103%.

Q: For `Cc1ccc(NC(=O)CN2CCN(Cc3ccc4c(c3)OCO4)CC2)cc1` [CBK074403], which viability at 28.5 h, 10 µM is on record?
A: Its viability at 28.5 h, 10 µM is 102%.

Q: For `O=C1c2cccc3cccc(c23)C(=O)N1CC1CCN(CC(O)COCc2ccccc2)CC1` (stereo not shown) [CBK074407C], which viability at 28.5 h, 10 µM is on record?
A: The viability at 28.5 h, 10 µM was 84.4%.

Q: For `COc1ccc(CN2CCN(C(=O)c3cccs3)CC2)cc1OC` [CBK074410], which viability at 28.5 h, 10 µM is on record?
A: Its viability at 28.5 h, 10 µM is 104%.

Q: With `COc1ccccc1OCc1ccc(C(=O)N2CCN(c3cccc(C(F)(F)F)c3)CC2)o1` [CBK074417] as the compound, how does the viability at 28.5 h, 10 µM read?
A: Its viability at 28.5 h, 10 µM is 62.7%.

Q: Which viability at 28.5 h, 10 µM does the source give for `O=C(CCN1C(=O)c2cccc3cccc(c23)C1=O)N1CCN(Cc2ccc3c(c2)OCO3)CC1` [CBK074420] here?
A: Its viability at 28.5 h, 10 µM is 96.2%.

Q: With `COc1cccc(CNc2cccc(C(=O)O)c2)c1OCc1ccc(Cl)cc1Cl` [CBK074424] as the compound, how does the viability at 28.5 h, 10 µM read?
A: Its viability at 28.5 h, 10 µM is 91.3%.

Q: Which viability at 28.5 h, 10 µM does the source give for `COc1ccc(C(=O)c2sc3nc(C)c(C)c(C)c3c2N)cc1OC` [CBK074427] here?
A: The viability at 28.5 h, 10 µM was 72.7%.

Q: Which viability at 28.5 h, 10 µM does the source give for `O=C(c1sc2cc(Cl)ccc2c1Cl)N1CCN(Cc2ccc3c(c2)OCO3)CC1` [CBK074431] here?
A: The viability at 28.5 h, 10 µM was 101%.

Q: For `COc1ccc(CCNc2oc(COc3ccccc3)nc2C#N)cc1` [CBK074469], which viability at 28.5 h, 10 µM is on record?
A: Its viability at 28.5 h, 10 µM is 90.2%.

Q: Which viability at 28.5 h, 10 µM does the source give for `Nc1nc(-c2ccccc2)nn1C(=O)CCc1ccccc1` [CBK074471] here?
A: Its viability at 28.5 h, 10 µM is 95.9%.

Q: Which viability at 28.5 h, 10 µM does the source give for `CCOc1cccc(CNc2ccc(O)cc2)c1OCc1ccccc1Cl` [CBK074473] here?
A: The viability at 28.5 h, 10 µM was 87.7%.

Q: Which viability at 28.5 h, 10 µM does the source give for `CCOC(=O)COc1ccc(S(=O)(=O)N2CCN(Cc3ccc4c(c3)OCO4)CC2)cc1` [CBK074492] here?
A: The viability at 28.5 h, 10 µM was 101%.

Q: With `O=C(CN1CCN(C/C=C/c2ccccc2)CC1)Nc1ccc(C2CCCCC2)cc1` [CBK074497] as the compound, how does the viability at 28.5 h, 10 µM read?
A: The viability at 28.5 h, 10 µM was 112%.

Q: With `COc1cc(CN2CCN(S(=O)(=O)c3ccc(Cl)cc3)CC2)cc(OC)c1OC` [CBK074499] as the compound, how does the viability at 28.5 h, 10 µM read?
A: Its viability at 28.5 h, 10 µM is 91.3%.

Q: For `CCOc1cccc(N2C(=O)c3cc(Br)ccc3NC2c2ccc(OC)c(OC)c2)c1` (stereo not shown) [CBK074502], which viability at 28.5 h, 10 µM is on record?
A: The viability at 28.5 h, 10 µM was 88.4%.

Q: With `COc1ccc(S(=O)(=O)N2CCN(Cc3ccc4c(c3)OCO4)CC2)c2ccccc12` [CBK074521] as the compound, how does the viability at 28.5 h, 10 µM read?
A: Its viability at 28.5 h, 10 µM is 96.4%.

Q: Which viability at 28.5 h, 10 µM does the source give for `COc1ccc(-n2c(CNCc3ccc4c(c3)OCO4)nc3ccccc3c2=O)cc1` [CBK074522] here?
A: Its viability at 28.5 h, 10 µM is 102%.

Q: For `Nc1nc(NCc2ccccc2)nc(-c2cc(Cl)ccc2O)n1` [CBK074526], which viability at 28.5 h, 10 µM is on record?
A: Its viability at 28.5 h, 10 µM is 102%.

Q: For `COc1cccc(CN2CCN(C(=O)c3cccc(F)c3)CC2)c1OC` [CBK074527], which viability at 28.5 h, 10 µM is on record?
A: Its viability at 28.5 h, 10 µM is 85.1%.

Q: With `COc1cc(CN2CCN(C(=O)c3cccc(Cl)c3)CC2)cc(OC)c1OC` [CBK074530] as the compound, how does the viability at 28.5 h, 10 µM read?
A: Its viability at 28.5 h, 10 µM is 97.1%.

Q: Which viability at 28.5 h, 10 µM does the source give for `COc1cccc(CNc2ccc(N3CCCCC3)cc2)c1OCc1cccs1` [CBK074531] here?
A: Its viability at 28.5 h, 10 µM is 96.5%.

Q: With `COc1cc(-c2nc(S(=O)(=O)c3ccccc3)c(N3CCOCC3)o2)cc(OC)c1OC` [CBK074539] as the compound, how does the viability at 28.5 h, 10 µM read?
A: Its viability at 28.5 h, 10 µM is 90.1%.

Same assay, conditions: human, hela cells, % viability, bulk resorufin, single well

Q: For `COc1ccc(CCNCc2ccc3c(c2)OCO3)cc1` [CBK074488], which viability at 28.5 h, 10 µM is on record?
A: The viability at 28.5 h, 10 µM was 95.7%.
